The values below come from patent publication US9115143B2, “Substituted indole derivatives as gamma secretase modulators” (Janssen Pharmaceuticals, Inc., priority 2011, dated 2015).

For this assay, the system named is Aβ38. The assay can be described thus: In vivo efficacy B-2a: brain soluble Aβ38 in non-transgenic rodents, ELISA. Details: species or system mouse. As to conditions: dose 30 mg/kg oral dosing, brain soluble fraction, untreated animals (Ctrl) set at 100; for response vs control in vivo at 30 mg/kg: Mus musculus, po, read-out: Aβ38 (% vs Ctrl)_Mean; for Aβ38 (% vs Ctrl)_Mean: 30 mg/kg. The source says:
Aβ38 increasing agents can be administered in any standard form using any standard method. For example, but not limited to, Aβ38 increasing agents can be in the form of liquid, tablets or capsules that are taken orally or by injection.
To determine whether acute administration of an Aβ38 increasing agents would increase Aβ38 levels in vivo, non-transgenic rodents, e.g. mice or rats were used. Animals treated with the Aβ38 increasing agents were examined and compared to those untreated or treated with vehicle and brain levels of soluble Aβ38 and total Aβ were quantitated by standard techniques, for example, using ELISA. Treatment periods varied from hours (h) to days and were adjusted based on the results of the Aβ38 increase once a time course of onset of effect could be established.
A typical protocol for measuring Aβ38 increase in vivo is shown but it is only one of many variations that could be used to optimize the levels of detectable Aβ. For example, Aβ38 increasing agents were formulated in 20% of Captisol® (a sulfobutyl ether of β-cyclodextrin) in water or 20% hydroxypropyl β cyclodextrin. The Aβ38 increasing agents were administered as a single oral dose or by any acceptable route of administration to overnight fasted animals. After 4 h, the animals were sacrificed and Aβ38 levels were analysed.
Blood was collected by decapitation and exsanguinations in EDTA-treated collection tubes. Blood was centrifuged at 1900 g for 10 minutes (min) at 4° C. and the plasma recovered and flash frozen for later analysis. The brain was removed from the cranium and hindbrain. The cerebellum was removed and the left and right hemisphere were separated. The left hemisphere was stored at −18° C. for quantitative analysis of test compound levels. The right hemisphere was rinsed with phosphate-buffered saline (PBS) buffer and immediately frozen on dry ice and stored at −80° C. until homogenization for biochemical assays.
Mouse brains from non-transgenic animals were resuspended in 8 volumes of 0.4% DEA (diethylamine)/50 mM NaCl containing protease inhibitors (Roche-11873580001 or 04693159001) per gram of tissue, e.g. for 0.158 g brain, add 1.264 mL of 0.4% DEA. All samples were homogenized in the FastPrep-24 system (MP Biomedicals) using lysing matrix D (MPBio #6913-100) at 6 m/s for 20 seconds. Homogenates were centrifuged at 20800×g for 5 min and supernatants collected. Supernatants were centrifuged at 221.300×g for 50 min. The resulting high speed supernatants were then transferred to fresh eppendorf tubes. Nine parts of supernatant were neutralized with 1 part 0.5 M Tris-HCl pH 6.8 and used to quantify Aβtotal and Aβ38.
To quantify the amount of Aβtotal and Aβ38 in the soluble fraction of the brain homogenates, Enzyme-Linked-Immunosorbent-Assays were used. Briefly, the standards (a dilution of synthetic Aβ1-40 and Aβ1-38, ANASPEC) were prepared in 1.5 mL Eppendorf tube in Ultraculture, with final concentrations ranging from 10000 to 0.3 pg/mL. The samples and standards were co-incubated with HRPO-labelled N-terminal antibody for Aβ38 detection and with the biotinylated mid-domain antibody 4G8 for Aβtotal detection. 50 μl of conjugate/sample or conjugate/standards mixtures were then added to the antibody-coated plate (the capture antibodies selectively recognize the C-terminal end of Aβ38, antibody J&JPRD/Aβ38/5, for Aβ38 detection and the N-terminus of Aβ, antibody JRF/rAβ/2, for Aβtotal detection). The plate was allowed to incubate overnight at 4° C. in order to allow formation of the antibody-amyloid complex. Following this incubation and subsequent wash steps the ELISA for Aβ38 quantification was finished by addition of Quanta Blu fluorogenic peroxidase substrate according to the manufacturer's instructions (Pierce Corp., Rockford, Ill.). A reading was performed after 10 to 15 min (excitation 320 nm/emission 420 nm). […]
(In general: An ELISA detects its analyte on a solid surface through an enzyme-linked reagent.)

Consider `Cc1cn(-c2ccc3[nH]c(-c4nc5n(n4)CCCC5c4ccc(F)cc4C)cc3c2)cn1` (single isomer, unassigned) [Compound 77, 8-(4-fluoro-2-methylphenyl)-5,6,7,8-tetrahydro-2-[5-(4-methyl-1H-imidazol-1-yl)-1H-indol-2-yl]-[1,2,4]triazolo[1,5-a]pyridine], for which the response vs control in vivo at 30 mg/kg was determined as 168%.

Consider `Cc1cc(F)ccc1C1OCCn2cc(-c3cc4nc(-c5cnn(C)c5)ccc4[nH]3)nc21` (single isomer, unassigned) [Compound 102, 8-(4-fluoro-2-methylphenyl)-5,6-dihydro-2-[5-(1-methyl-1H-pyrazol-4-yl)-1H-pyrrolo[3,2-b]pyridin-2-yl]-8H-imidazo[2,1-c][1,4]oxazine], for which the response vs control in vivo at 30 mg/kg stood at 82%. On the same count and under the same terms, for `Cc1cc(F)ccc1C1CCCn2nc(-c3[nH]c4ccc(C#N)cc4c3F)nc21` (single isomer, unassigned) [Compound 182, 3-fluoro-2-[8-(4-fluoro-2-methylphenyl)-5,6,7,8-tetrahydro[1,2,4]triazolo[1,5-a]pyridin-2-yl]-1H-indole-5-carbonitrile] the value was 132%. Consider `Cc1cc(F)ccc1C1CCCn2cc(-c3cc4cc(C#N)ccc4[nH]3)nc21` (centres unmarked) [Compound 4, 2-[8-(4-fluoro-2-methylphenyl)-5,6,7,8-tetrahydroimidazo[1,2-a]pyridin-2-yl]-1H-indole-5-carbonitrile], for which the “Aβ38 (% vs Ctrl)_Mean” value came out at 141 % vs Ctrl. As for `COc1c(C#N)ccc2[nH]c(-c3nc4n(n3)CCCC4c3ccccc3C(F)(F)F)cc12` (centres unmarked) [Compound 7, 4-methoxy-2-[5,6,7,8-tetrahydro-8-[2-(trifluoromethyl)phenyl][1,2,4]triazolo[1,5-a]pyridin-2-yl]-1H-indole-5-carbonitrile], the response vs control in vivo at 30 mg/kg was 120%. On the same count and under the same terms, for `Cc1cn(-c2ccc3[nH]c(-c4nc5n(n4)CCCC5c4ccccc4C(F)(F)F)cc3c2)cn1` (centres unmarked) [Compound 8, 5,6,7,8-tetrahydro-2-[5-(4-methyl-1H-imidazol-1-yl)-1H-indol-2-yl]-8-[2-(trifluoromethyl)phenyl]-[1,2,4]triazolo[1,5-a]pyridine] the value was 181%. `Cc1cc(F)ccc1C1CCCn2nc(-c3cc4cc(C#N)ccc4[nH]3)nc21` (centres unmarked) [Compound 10, 2-[8-(4-fluoro-2-methylphenyl)-5,6,7,8-tetrahydro[1,2,4]triazolo[1,5-a]pyridin-2-yl]-1H-indole-5-carbonitrile]: the “Aβ38 (% vs Ctrl)_Mean” value turned out to be 115 % vs Ctrl. As to `Cc1ccccc1C1CCCn2nc(-c3cc4cc(C#N)ccc4[nH]3)nc21` (centres unmarked) [Compound 13, 2-[5,6,7,8-tetrahydro-8-(2-methylphenyl)[1,2,4]triazolo[1,5-a]pyridin-2-yl]-1H-indole-5-carbonitrile], the response vs control in vivo at 30 mg/kg stood at 116%. Still for that read-out and setting: for `N#Cc1ccc2[nH]c(-c3cn4c(n3)C(c3ccccc3Cl)CCC4)cc2c1` (centres unmarked) [Compound 16, 2-[8-(2-chlorophenyl)-5,6,7,8-tetrahydroimidazo[1,2-a]pyridin-2-yl]-1H-indole-5-carbonitrile] the value was 120%; for `Cc1cn(-c2cc3cc(-c4nc5n(n4)CCCC5c4ccccc4C)[nH]c3cn2)cn1` (centres unmarked) [Compound 30, 5,6,7,8-tetrahydro-2-[5-(4-methyl-1H-imidazol-1-yl)-1H-pyrrolo[2,3-c]pyridin-2-yl]-8-(2-methylphenyl)-[1,2,4]triazolo[1,5-a]pyridine], 118%; for `Cc1cn(-c2ccc3[nH]c(-c4nc5n(n4)CCOC5c4ccccc4C(F)(F)F)cc3c2)cn1` (centres unmarked) [Compound 37, 5,6-dihydro-2-[5-(4-methyl-1H-imidazol-1-yl)-1H-indol-2-yl]-8-[2-(trifluoromethyl)phenyl]-8H-[1,2,4]triazolo[5,1-c][1,4]oxazine], 118%.
